Reference: ChEMBL document CHEMBL5584315, “Evaluation of Phenazine Derivatives from the Lichen-Associated Streptomyces flavidovirens as Potent Antineuroinflammatory Agents In Vitro and In Vivo” (J Nat Prod, 2024)
Each block holds one compound with its values, some of them ahead of it. Activity calls are given as the source filed them. The rule behind the calls is not given here.

Key:
[1] = Cytotoxicity against mouse BV-2 cells assessed as cell viability at 40 uM measured after 24 hrs by MTT assay relative to control; type: toxicity, cell-based; settings: read-out: Activity
[2] = tested on: BV-2; test: Antineuroinflammatory activity in LPS induced mouse BV-2 cells assessed as inhibition of NO production pretreated for 3 hrs followed by LPS addition and measured after 21 hrs by griess reagent based assay; type: functional, cell-based
[3] = organism: Danio rerio; test: Inhibition of LPS-induced ROS stress in Zebrafish embryo model assessed as reduction in ROS expression by measuring green fluorescence intensity at 30 uM pretreated for 2 hrs followed by LPS stimulation and measured after 12 hrs by H2DCF-DA staining based fluorescence microscopy analysis; type: functional, organism-based; settings: time 14.0 hrs
[4] = tested on: BV-2; test: Cytotoxicity against mouse BV-2 cells assessed as cell viability at 40 uM measured after 24 hrs by MTT assay; type: toxicity, cell-based; settings: bv-2, 24 h
[5] = tested on: BV-2; test: Antineuroinflammatory activity in LPS induced mouse BV-2 cells assessed as inhibition of NO production at 20 uM pretreated for 3 hrs followed by LPS addition and measured after 21 hrs by griess reagent based assay relative to control; type: functional; set-up: scale not given: the % may be the effect or the level left; settings: time 24 hrs
[6] = tested on: BV-2; test: Antineuroinflammatory activity in mouse BV-2 cells assessed as reversal of LPS-induced cell shortening measured after 24 hrs by microscope based analysis; type: functional
[7] = tested on: BV-2; test: Antineuroinflammatory activity in mouse BV-2 cells assessed as reversal of LPS-induced cell thickening measured after 24 hrs by microscope based analysis; type: functional
[8] = tested on: BV-2; test: Antineuroinflammatory activity in mouse BV-2 cells assessed as reversal of LPS-induced enlarged cell bodies measured after 24 hrs by microscope based analysis; type: functional
[9] = tested on: BV-2; test: Antineuroinflammatory activity in LPS-induced mouse BV-2 cells assessed as reduction in IL-6 expression at 5 uM preincubated for 3 hrs followed by LPS stimulation and measured after 21 hrs by ELISA method relative to control; type: functional; set-up: scale not given: the % may be the effect or the level left; settings: time 24 hrs
[10] = tested on: BV-2; test: Antineuroinflammatory activity in LPS-induced mouse BV-2 cells assessed as reduction in TNF-alpha expression at 5 uM preincubated for 3 hrs followed by LPS stimulation and measured after 21 hrs by ELISA method relative to control; type: functional; set-up: scale not given: the % may be the effect or the level left; settings: time 24 hrs
[11] = tested on: BV-2; test: Antineuroinflammatory activity in LPS-induced mouse BV-2 cells assessed as reduction in PGE2 cytokine production at 5 uM preincubated for 3 hrs followed by LPS stimulation and measured after 21 hrs by ELISA method relative to control; type: functional; set-up: scale not given: the % may be the effect or the level left; settings: time 24 hrs
[12] = tested on: BV-2; test: Antineuroinflammatory activity in LPS-induced mouse BV-2 cells assessed as reduction in IL-6 expression at 10 uM preincubated for 3 hrs followed by LPS stimulation and measured after 21 hrs by ELISA method relative to control; type: functional; set-up: scale not given: the % may be the effect or the level left; settings: time 24 hrs
[13] = tested on: BV-2; test: Antineuroinflammatory activity in LPS-induced mouse BV-2 cells assessed as reduction in TNF-alpha expression at 10 uM preincubated for 3 hrs followed by LPS stimulation and measured after 21 hrs by ELISA method relative to control; type: functional; set-up: scale not given: the % may be the effect or the level left; settings: time 24 hrs
[14] = tested on: BV-2; test: Antineuroinflammatory activity in LPS-induced mouse BV-2 cells assessed as reduction in PGE2 cytokine production at 10 uM preincubated for 3 hrs followed by LPS stimulation and measured after 21 hrs by ELISA method relative to control; type: functional; set-up: scale not given: the % may be the effect or the level left; settings: time 24 hrs
[15] = tested on: BV-2; test: Antineuroinflammatory activity in LPS-induced mouse BV-2 cells assessed as reduction in IL-6 expression at 20 uM preincubated for 3 hrs followed by LPS stimulation and measured after 21 hrs by ELISA method relative to control; type: functional; set-up: scale not given: the % may be the effect or the level left; settings: time 24 hrs
[16] = tested on: BV-2; test: Antineuroinflammatory activity in LPS-induced mouse BV-2 cells assessed as reduction in TNF-alpha expression at 20 uM preincubated for 3 hrs followed by LPS stimulation and measured after 21 hrs by ELISA method relative to control; type: functional; set-up: scale not given: the % may be the effect or the level left; settings: time 24 hrs
[17] = tested on: BV-2; test: Antineuroinflammatory activity in LPS-induced mouse BV-2 cells assessed as reduction in PGE2 cytokine production at 20 uM preincubated for 3 hrs followed by LPS stimulation and measured after 21 hrs by ELISA method relative to control; type: functional; set-up: scale not given: the % may be the effect or the level left; settings: time 24 hrs
[18] = Antioxidant activity assessed as ABTS radical scavenging activity by absorbance based analysis; type: functional
[19] = Antioxidant activity assessed as DPPH radical scavenging activity by absorbance based analysis; type: functional
[20] = Inhibition of ROS production in LPS-induced mouse BV-2 cells as decrease in intracellular ROS production at 5 uM preincubated for 3 hrs followed by LPS stimulation and measured after 21 hrs by DCFH-DA staining based microscopic analysis relative to control; type: functional; settings: time 24 hrs
[21] = Inhibition of ROS production in LPS-induced mouse BV-2 cells as decrease in intracellular ROS production at 10 uM preincubated for 3 hrs followed by LPS stimulation and measured after 21 hrs by DCFH-DA staining based microscopic analysis relative to control; type: functional; settings: time 24 hrs
[22] = Inhibition of ROS production in LPS-induced mouse BV-2 cells as decrease in intracellular ROS production at 20 uM preincubated for 3 hrs followed by LPS stimulation and measured after 21 hrs by DCFH-DA staining based microscopic analysis relative to control; type: functional; settings: time 24 hrs
[23] = tested on: BV-2; test: Inhibition of ROS production in LPS-induced mouse BV-2 cells as decrease in intracellular ROS production preincubated for 3 hrs followed by LPS stimulation and measured after 21 hrs by DCFH-DA staining based microscopic analysis relative to control; type: functional, cell-based; settings: dose 5-20 µM, time 24.0 hrs
[24] = tested on: BV-2; test: Antineuroinflammatory activity in LPS-induced mouse BV-2 cells assessed as suppression of iNOS expression at 20 uM preincubated for 3 hrs followed by LPS stimulation and measured after 21 hrs by Western blot analysis (reference value: 524 +/-15%); type: functional; settings: time 24 hrs
[25] = tested on: BV-2; test: Antineuroinflammatory activity in LPS-induced mouse BV-2 cells assessed as suppression of COX-2 expression at 20 uM preincubated for 3 hrs followed by LPS stimulation and measured after 21 hrs by Western blot analysis (reference value: 172 +/-9%); type: functional; settings: time 24 hrs
[26] = tested on: BV-2; test: Antineuroinflammatory activity in LPS-induced mouse BV-2 cells assessed as suppression of TLR4 expression at 20 uM preincubated for 3 hrs followed by LPS stimulation and measured after 21 hrs by Western blot analysis (reference value: 414+/-14%); type: functional; settings: time 24 hrs
[27] = tested on: BV-2; test: Antineuroinflammatory activity in LPS-induced mouse BV-2 cells assessed as suppression of TAK1 expression at 20 uM preincubated for 3 hrs followed by LPS stimulation and measured after 21 hrs by Western blot analysis (reference value: 225+/-10%); type: functional; settings: time 24 hrs
[28] = tested on: BV-2; test: Antineuroinflammatory activity in LPS-induced mouse BV-2 cells assessed as suppression of p-IkappaBalpha/IkappaBalpha ratio at 20 uM preincubated for 3 hrs followed by LPS stimulation and measured after 21 hrs by Western blot analysis (reference value: 123+/-8%); type: functional
[29] = tested on: BV-2; test: Antineuroinflammatory activity in LPS-induced mouse BV-2 cells assessed as decrease in ratio of nuclear p65 to cytoplasmic p65 at 20 uM preincubated for 3 hrs followed by LPS stimulation and measured after 21 hrs by Western blot analysis relative to control; type: functional; set-up: scale not given: the % may be the effect or the level left
[30] = tested on: BV-2; test: Antineuroinflammatory activity in LPS-induced mouse BV-2 cells assessed as downregulation of keap1 expression at 20 uM preincubated for 3 hrs followed by LPS stimulation and measured after 21 hrs by Western blot analysis relative to control; type: functional; settings: time 24 hrs
[31] = tested on: BV-2; test: Antineuroinflammatory activity in LPS-induced mouse BV-2 cells assessed as upregulation of Nrf2 expression at 20 uM preincubated for 3 hrs followed by LPS stimulation and measured after 21 hrs by Western blot analysis relative to control; type: functional; settings: time 24 hrs
[32] = tested on: BV-2; test: Antineuroinflammatory activity in LPS-induced mouse BV-2 cells assessed as upregulation of HO-1 expression at 20 uM preincubated for 3 hrs followed by LPS stimulation and measured after 21 hrs by Western blot analysis relative to control; type: functional; settings: time 24 hrs
[33] = tested on: BV-2; test: Antineuroinflammatory activity in LPS-induced mouse BV-2 cells assessed as upregulation of CAT expression at 20 uM preincubated for 3 hrs followed by LPS stimulation and measured after 21 hrs by Western blot analysis relative to control; type: functional; settings: time 24 hrs
[34] = organism: Danio rerio; test: Inhibition of LPS-induced ROS stress in Zebrafish embryo model assessed as reduction in ROS expression by measuring green fluorescence intensity at 15 to 30 uM pretreated for 2 hrs followed by LPS stimulation and measured after 12 hrs by H2DCF-DA staining based fluorescence microscopy analysis; type: functional, organism-based; settings: dose 15-30 µM, time 14.0 hrs

IC50 [2]: > 20 µM
SMILES: CC(=O)NCC(=O)c1c[nH]c2ccccc12
viability at 24 h, 40 µM [1]: > 98%

IC50 [2]: 8.6 µM
SMILES: COC(=O)c1cccc2nc3ccccc3nc12
viability at 24 h, 40 µM [1]: > 98%

IC50 [2]: > 20 µM
SMILES: CC(=O)OC[C@H]1O[C@@H](n2cnc3c(N)ncnc32)[C@H](O)[C@@H]1O
viability at 24 h, 40 µM [1]: > 98%

IC50 [2]: > 20 µM
SMILES: CSc1nc(NC/C=C(/C)CO)c2ncn([C@@H]3O[C@H](COC(C)=O)[C@@H](O)[C@H]3O)c2n1
viability at 24 h, 40 µM [1]: > 98%

IC50 [2]: 8.3 µM
SMILES: COC(=O)c1cccc2nc3c([C@H](O)[C@@H](C)C(=O)OC)cccc3nc12
viability at 24 h, 40 µM [1]: > 98%

IC50 [2]: 8 µM
EC50 [18]: 900 µM
EC50 [19]: 1900 µM
SMILES: COC(=O)[C@H](C)[C@@H](O)c1cccc2nc3c(C(=O)O)cccc3nc12
viability at 24 h, 40 µM [1]: > 98%
Activity [5]: 70%
Activity [6]: Dose-Dependent Effect
Activity [7]: Dose-Dependent Effect
Activity [8]: Dose-Dependent Effect
Activity [9]: 20%
Activity [10]: 10%
Activity [11]: 34%
Activity [12]: 38%
Activity [13]: 33%
Activity [14]: 47%
Activity [15]: 49%
Activity [16]: 47%
Activity [17]: 62%
inhibition at 5 µM [20]: 8%
inhibition at 10 µM [21]: 30%
inhibition at 20 µM [22]: 66%
inhibition [23]: Dose-Dependent Effect
Activity [24]: 303%
Activity [25]: 105%
Activity [26]: 73%
Activity [27]: 38%
Activity [28]: 36%
Activity [29]: 60%
Activity [30]: 36%
Activity [31]: 67%
Activity [32]: 54%
Activity [33]: 10%
inhibition [34]: Active

IC50 [2]: 8.4 µM
SMILES: COC(=O)C[C@@H](O)c1cccc2nc3c(C(=O)OC)cccc3nc12
viability at 24 h, 40 µM [1]: > 98%

IC50 [2]: 17.4 µM
SMILES: CC(=O)NCCC(=O)Nc1cccs1
viability at 24 h, 40 µM [1]: > 98%

IC50 [2]: 19.5 µM
SMILES: O=C(O)c1ccc[nH]1
viability at 24 h, 40 µM [1]: > 98%

IC50 [2]: > 20 µM
SMILES: CC(C)C[C@@H]1NC(=O)[C@H](Cc2c[nH]c3ccccc23)NC1=O
viability at 24 h, 40 µM [1]: > 98%

IC50 [2]: 8.2 µM
SMILES: COC(=O)c1cccc2nc3c([C@H](O)[C@H](C)C(=O)OC)cccc3nc12
viability at 24 h, 40 µM [1]: > 98%

IC50 [2]: 8.5 µM
SMILES: COC(=O)c1cccc2nc3c([C@@H](C)O)cccc3nc12
viability at 24 h, 40 µM [1]: > 98%

IC50 [2]: > 20 µM
SMILES: O=C1CCCN1Cc1ccco1
viability at 24 h, 40 µM [1]: > 98%

Further lines, the compound ahead of its results:

SMILES: CSC(=N)N
IC50 [2]: 7.5 µM

SMILES: CC(=O)NCCc1c[nH]c2ccccc12 [NB-ACETYLTRYPTAMINE]
viability at 24 h, 40 µM [1]: > 98%
IC50 [2]: > 20 µM

SMILES: C[C@@H]1C[C@H]2[C@@H]3CCC4=CC(=O)C=C[C@]4(C)[C@@]3(F)[C@@H](O)C[C@]2(C)[C@@]1(O)C(=O)CO
inhibition [3]: inactive

SMILES: O=c1c(O)c(-c2ccc(O)c(O)c2)oc2cc(O)cc(O)c12 [QUERCETIN]
IC50 [2]: 9.8 µM

SMILES: O=C1N[C@@H](Cc2c[nH]c3ccccc23)C(=O)N2CCC[C@@H]12 [BREVIANAMIDE F]
viability at 24 h, 40 µM [1]: > 98%
IC50 [2]: > 20 µM

SMILES: COC(=O)c1cccc2nc3c([C@H](OC(=O)c4ccc(Br)cc4)[C@@H](C)C(=O)OC)cccc3nc12
Activity [4]: Toxic

SMILES: O=C(O)c1cccc2nc3ccccc3nc12 [PHENAZINE-1-CARBOXYLIC ACID]
viability at 24 h, 40 µM [1]: > 98%
IC50 [2]: 8.4 µM

SMILES: O=C1CCCCN1Cc1ccco1
viability at 24 h, 40 µM [1]: > 98%
IC50 [2]: > 20 µM

SMILES: COC(=O)c1cc2c([nH]c3ccccc32)c(-c2ccc(CO)o2)n1
Activity [4]: Toxic
